Converted amounts (≈) assume the structure as drawn.
Assays:
Escherichia coli [1] = assay: Antibacterial activity against Escherichia coli K1 RS218 assessed as inhibition of bacterial growth incubated for 24 hrs by CLSI based broth microdilution method; assay type: functional
Streptococcus = assay: Antibacterial activity against Streptococcus M1T1 assessed as inhibition of bacterial growth incubated for 24 hrs by CLSI based broth microdilution method; assay type: functional
Staphylococcus aureus = assay: Antibacterial activity against Staphylococcus aureus TCH1516 assessed as inhibition of bacterial growth incubated for 24 hrs by CLSI based broth microdilution method; assay type: functional
Acinetobacter baumannii = assay: Antibacterial activity against Acinetobacter baumannii 5075 assessed as inhibition of bacterial growth incubated for 24 hrs by CLSI based broth microdilution method; assay type: functional
Haemophilus influenzae [2] = assay: Antibacterial activity against Haemophilus influenzae 1 assessed as inhibition of bacterial growth incubated for 24 hrs by CLSI based broth microdilution method; assay type: functional
A549 = assay: Cytotoxicity against human A549 cells assessed as increase in LDH release at 16 microg/ml incubated for 24 hrs; assay type: toxicity, cell-based; conditions: a549, 24 h, dose 16 µg/ml
Escherichia coli [3] = assay: Antibacterial activity against Escherichia coli LptD4213 assessed as inhibition of bacterial growth incubated for 18 hrs by broth microdilution method; assay type: functional
Haemophilus influenzae [4] = assay: Antibacterial activity against Haemophilus influenzae 2 assessed as inhibition of bacterial growth incubated for 24 hrs by CLSI based broth microdilution method; assay type: functional
[5] = test system: Staphylococcus epidermidis; assay: Antibacterial activity against methicillin-resistant Staphylococcus epidermidis assessed as inhibition of bacterial growth incubated for 24 hrs by CLSI based broth microdilution method; assay type: functional
Enterococcus faecium = assay: Antibacterial activity against vancomycin-resistant Enterococcus faecium DAPS assessed as inhibition of bacterial growth incubated for 24 hrs by CLSI based broth microdilution method; assay type: functional

SMILES | MIC (Escherichia coli [1]) | MIC (Streptococcus) | MIC (Staphylococcus aureus) | MIC (Acinetobacter baumannii) | MIC (Haemophilus influenzae [2]) | Activity (A549) | MIC (Escherichia coli [3]) | MIC (Haemophilus influenzae [4]) | MIC [5] | MIC (Enterococcus faecium)
C/C(=C\[C@H]1C=C[C@H]2CC[C@@H](C)[C@@H]2[C@H]1C(=O)c1[nH]c(Cl)c(Cl)c1Cl)C[C@@H](C)C(=O)O | > 32 µg/mL | 4 µg/mL (≈ 8.72 µM) | 2 µg/mL (≈ 4.36 µM) | > 32 µg/mL | 1 µg/mL (≈ 2.18 µM) | Toxic | 4 µg/mL (≈ 8.72 µM) | 2 µg/mL (≈ 4.36 µM) | 4 µg/mL (≈ 8.72 µM) | 4 µg/mL (≈ 8.72 µM)
C/C(=C\[C@H]1C=C[C@H]2CC[C@@H](C)[C@@H]2[C@H]1C(=O)c1cc(Cl)c(Cl)[nH]1)C[C@@H](C)C(=O)O | > 16 µg/mL | > 16 µg/mL | > 16 µg/mL | – | – | – | – | – | – | > 16 µg/mL

Source: ChEMBL document CHEMBL6078656, “Pattern-Based Genome Mining Guides Discovery of the Antibiotic Indanopyrrole A from a Marine Streptomycete” (J Nat Prod, 2024)
